{"source": "the supplement of paper PMC10307832", "assay_in_all_cases": "relative viability (nuclei count vs DMSO), 5 days (fraction); higher = more cells survive", "key": {"201T": {"tested_on": "201T", "method_in_brief": "(§1)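 Nuclei were stained with Hoechst during a one-step fixation (final 0.05% Triton X-100, 1% formaldehyde, 1 ug/ml Hoechst) carried out 5 days after dosing, then counted on 4× images. The cells, lung cancer lines in 1536-well plates, had been dosed by pin tool the day after seeding with one drug alone or a fixed anchor-drug dose plus five library-drug doses (not always all listed) in √10 steps. Relative viability is the nuclei count in treated wells divided by that in vehicle wells, and each value is the median of duplicate plates.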"}, "COR-L 105": {"tested_on": "COR-L 105", "method_in_brief": "as §1"}, "ChaGo-K-1": {"tested_on": "ChaGo-K-1", "method_in_brief": "as §1"}, "EKVX": {"tested_on": "EKVX", "method_in_brief": "as §1"}, "H3255": {"tested_on": "H3255", "method_in_brief": "as §1"}, "HARA": {"tested_on": "HARA", "method_in_brief": "as §1"}, "HCC-827": {"tested_on": "HCC-827", "method_in_brief": "as §1"}, "HOP-62": {"tested_on": "HOP-62", "method_in_brief": "as §1"}, "LCLC-103H": {"tested_on": "LCLC-103H", "method_in_brief": "as §1"}, "LOU-NH91": {"tested_on": "LOU-NH91", "method_in_brief": "as §1"}, "NCI-H1975": {"tested_on": "NCI-H1975", "method_in_brief": "as §1"}, "NCI-H2126": {"tested_on": "NCI-H2126", "method_in_brief": "as §1"}, "NCI-H2228": {"tested_on": "NCI-H2228", "method_in_brief": "as §1"}, "NCI-H23": {"tested_on": "NCI-H23", "method_in_brief": "as §1"}, "NCI-H2405": {"tested_on": "NCI-H2405", "method_in_brief": "as §1"}, "NCI-H3122": {"tested_on": "NCI-H3122", "method_in_brief": "as §1"}, "NCI-H596": {"tested_on": "NCI-H596", "method_in_brief": "as §1"}, "NCI-H650": {"tested_on": "NCI-H650", "method_in_brief": "as §1"}, "NCI-H661": {"tested_on": "NCI-H661", "method_in_brief": "as §1"}, "NCI-H727": {"tested_on": "NCI-H727", "method_in_brief": "as §1"}, "PC-3 [JPC-3]": {"tested_on": "PC-3 [JPC-3]", "method_in_brief": "as §1"}, "SK-LU-1": {"tested_on": "SK-LU-1", "method_in_brief": "as §1"}}}
{"smiles": "CN1CCN(CCOc2cc(OC3CCOCC3)c3c(Nc4c(Cl)ccc5c4OCO5)ncnc3c2)CC1", "note": "[Saracatinib] + C[C@@H](Oc1cc(-c2cnn(C3CCNCC3)c2)cnc1N)c1c(Cl)ccc(F)c1Cl [Crizotinib] (partner 1 µM)", "values": [{"measurement": "relative viability", "setting": "201T; first compound 0.02 µM", "value": 1.05}, {"measurement": "relative viability", "setting": "201T; first compound 0.2 µM", "value": 0.946}, {"measurement": "relative viability", "setting": "201T; first compound 0.6325 µM", "value": 0.962}, {"measurement": "relative viability", "setting": "201T; first compound 2 µM", "value": 0.862}, {"measurement": "relative viability", "setting": "COR-L 105; first compound 0.02 µM", "value": 0.881}, {"measurement": "relative viability", "setting": "COR-L 105; first compound 0.2 µM", "value": 0.763}, {"measurement": "relative viability", "setting": "COR-L 105; first compound 0.6325 µM", "value": 0.459}, {"measurement": "relative viability", "setting": "COR-L 105; first compound 2 µM", "value": 0.252}, {"measurement": "relative viability", "setting": "ChaGo-K-1; first compound 0.02 µM", "value": 1.08}, {"measurement": "relative viability", "setting": "ChaGo-K-1; first compound 0.2 µM", "value": 0.906}, {"measurement": "relative viability", "setting": "ChaGo-K-1; first compound 0.6325 µM", "value": 1.1}, {"measurement": "relative viability", "setting": "ChaGo-K-1; first compound 2 µM", "value": 0.809}, {"measurement": "relative viability", "setting": "EKVX; first compound 0.02 µM", "value": 0.927}, {"measurement": "relative viability", "setting": "EKVX; first compound 0.2 µM", "value": 0.865}, {"measurement": "relative viability", "setting": "EKVX; first compound 0.6325 µM", "value": 0.596}, {"measurement": "relative viability", "setting": "EKVX; first compound 2 µM", "value": 0.302}, {"measurement": "relative viability", "setting": "H3255; first compound 0.02 µM", "value": 0.865}, {"measurement": "relative viability", "setting": "H3255; first compound 0.2 µM", "value": 0.952}, {"measurement": "relative viability", "setting": "H3255; first compound 0.6325 µM", "value": 0.664}, {"measurement": "relative viability", "setting": "H3255; first compound 2 µM", "value": 0.269}, {"measurement": "relative viability", "setting": "HARA; first compound 0.02 µM", "value": 1.02}, {"measurement": "relative viability", "setting": "HARA; first compound 0.6325 µM", "value": 0.829}, {"measurement": "relative viability", "setting": "HARA; first compound 2 µM", "value": 0.64}, {"measurement": "relative viability", "setting": "HCC-827; first compound 0.02 µM", "value": 0.943}, {"measurement": "relative viability", "setting": "HCC-827; first compound 0.2 µM", "value": 0.452}, {"measurement": "relative viability", "setting": "HCC-827; first compound 0.6325 µM", "value": 0.247}, {"measurement": "relative viability", "setting": "HCC-827; first compound 2 µM", "value": 0.193}, {"measurement": "relative viability", "setting": "HOP-62; first compound 0.02 µM", "value": 0.772}, {"measurement": "relative viability", "setting": "HOP-62; first compound 0.2 µM", "value": 0.928}, {"measurement": "relative viability", "setting": "HOP-62; first compound 0.6325 µM", "value": 0.841}, {"measurement": "relative viability", "setting": "HOP-62; first compound 2 µM", "value": 1.02}, {"measurement": "relative viability", "setting": "LCLC-103H; first compound 0.02 µM", "value": 1.11}, {"measurement": "relative viability", "setting": "LCLC-103H; first compound 0.2 µM", "value": 0.817}, {"measurement": "relative viability", "setting": "LCLC-103H; first compound 0.6325 µM", "value": 1.13}, {"measurement": "relative viability", "setting": "LCLC-103H; first compound 2 µM", "value": 0.976}, {"measurement": "relative viability", "setting": "LOU-NH91; first compound 0.02 µM", "value": 0.692}, {"measurement": "relative viability", "setting": "LOU-NH91; first compound 0.2 µM", "value": 0.57}, {"measurement": "relative viability", "setting": "LOU-NH91; first compound 0.6325 µM", "value": 0.542}, {"measurement": "relative viability", "setting": "LOU-NH91; first compound 2 µM", "value": 0.458}, {"measurement": "relative viability", "setting": "NCI-H1975; first compound 0.02 µM", "value": 1.02}, {"measurement": "relative viability", "setting": "NCI-H1975; first compound 0.6325 µM", "value": 0.823}, {"measurement": "relative viability", "setting": "NCI-H1975; first compound 2 µM", "value": 0.515}, {"measurement": "relative viability", "setting": "NCI-H2126; first compound 0.02 µM", "value": 0.991}, {"measurement": "relative viability", "setting": "NCI-H2126; first compound 0.2 µM", "value": 0.84}, {"measurement": "relative viability", "setting": "NCI-H2126; first compound 0.6325 µM", "value": 1.02}, {"measurement": "relative viability", "setting": "NCI-H2126; first compound 2 µM", "value": 0.894}, {"measurement": "relative viability", "setting": "NCI-H2228; first compound 0.02 µM", "value": 0.477}, {"measurement": "relative viability", "setting": "NCI-H2228; first compound 0.2 µM", "value": 0.326}, {"measurement": "relative viability", "setting": "NCI-H2228; first compound 0.6325 µM", "value": 0.306}, {"measurement": "relative viability", "setting": "NCI-H2228; first compound 2 µM", "value": 0.213}, {"measurement": "relative viability", "setting": "NCI-H23; first compound 0.02 µM", "value": 0.528}, {"measurement": "relative viability", "setting": "NCI-H23; first compound 0.6325 µM", "value": 0.557}, {"measurement": "relative viability", "setting": "NCI-H23; first compound 2 µM", "value": 0.419}, {"measurement": "relative viability", "setting": "NCI-H2405; first compound 0.02 µM", "value": 0.854}, {"measurement": "relative viability", "setting": "NCI-H2405; first compound 0.2 µM", "value": 0.788}, {"measurement": "relative viability", "setting": "NCI-H2405; first compound 0.6325 µM", "value": 0.751}, {"measurement": "relative viability", "setting": "NCI-H2405; first compound 2 µM", "value": 0.501}, {"measurement": "relative viability", "setting": "NCI-H3122; first compound 0.02 µM", "value": 0.28}, {"measurement": "relative viability", "setting": "NCI-H3122; first compound 0.6325 µM", "value": 0.226}, {"measurement": "relative viability", "setting": "NCI-H3122; first compound 2 µM", "value": 0.187}, {"measurement": "relative viability", "setting": "NCI-H596; first compound 0.02 µM", "value": 0.727}, {"measurement": "relative viability", "setting": "NCI-H596; first compound 0.2 µM", "value": 0.775}, {"measurement": "relative viability", "setting": "NCI-H596; first compound 0.6325 µM", "value": 0.981}, {"measurement": "relative viability", "setting": "NCI-H596; first compound 2 µM", "value": 0.626}, {"measurement": "relative viability", "setting": "NCI-H650; first compound 0.02 µM", "value": 0.597}, {"measurement": "relative viability", "setting": "NCI-H650; first compound 0.2 µM", "value": 0.643}, {"measurement": "relative viability", "setting": "NCI-H650; first compound 0.6325 µM", "value": 0.639}, {"measurement": "relative viability", "setting": "NCI-H650; first compound 2 µM", "value": 0.622}, {"measurement": "relative viability", "setting": "NCI-H661; first compound 0.02 µM", "value": 1.08}, {"measurement": "relative viability", "setting": "NCI-H661; first compound 0.6325 µM", "value": 1.03}, {"measurement": "relative viability", "setting": "NCI-H661; first compound 2 µM", "value": 0.864}, {"measurement": "relative viability", "setting": "NCI-H727; first compound 0.02 µM", "value": 0.904}, {"measurement": "relative viability", "setting": "NCI-H727; first compound 0.2 µM", "value": 0.452}, {"measurement": "relative viability", "setting": "NCI-H727; first compound 0.6325 µM", "value": 0.617}, {"measurement": "relative viability", "setting": "NCI-H727; first compound 2 µM", "value": 0.378}, {"measurement": "relative viability", "setting": "PC-3 [JPC-3]; first compound 0.02 µM", "value": 0.997}, {"measurement": "relative viability", "setting": "PC-3 [JPC-3]; first compound 0.2 µM", "value": 0.983}, {"measurement": "relative viability", "setting": "PC-3 [JPC-3]; first compound 0.6325 µM", "value": 0.942}, {"measurement": "relative viability", "setting": "PC-3 [JPC-3]; first compound 2 µM", "value": 0.582}, {"measurement": "relative viability", "setting": "SK-LU-1; first compound 0.02 µM", "value": 0.774}, {"measurement": "relative viability", "setting": "SK-LU-1; first compound 0.2 µM", "value": 0.646}, {"measurement": "relative viability", "setting": "SK-LU-1; first compound 0.6325 µM", "value": 0.404}, {"measurement": "relative viability", "setting": "SK-LU-1; first compound 2 µM", "value": 0.331}]}
